Assay results as given in patent US9132164B2, “Pharmaceutical compositions comprising angiotensin-(1-9), derivatives thereof, or a vector expressing ACE2, useful for treating cardiovascular, pulmonary, cerebral, and/or renal remodeling” (PONTIFICIA UNIVERSIDAD CATOLICA DE CHILE, priority 2008, dated 2015).
Entries after “also recorded” stand apart in the source; their conditions may differ. No end group written: not given here.

Assays:
[1] = tested on: Neonatal Sprague-Dawly rat cardiomyocytes; test: Hypertrophy of cultured cardiomyocytes induced by norepinephrine or IGF-1; assay type: cell-based; conditions: co-addition of 10 or 100 μM
Method: Neonatal Sprague-Dawly rat cardiomyocytes were isolated as described by (Foncea et al, J. Biol. Chem. 272:19115-24, 1997). Every study is in accordance with the guide for the care and use of laboratory animals Published by “U.S. National Institutes of Health” (NIH publication No 85-23, revised 1985) and was approved by our Institutional Ethics Committee. Cell cultures were >95% pure. Cardiomyocytes were plated at 70% final density in gelatin coated plates and kept at 37° C. in a 5% CO2/95% air moisturized atmosphere for 24 h in DMEM/M199 (4:1) with 10% bovine fetal serum and 5% calf serum. […]
Cells were grown over slides and were incubated in a buffer conferring stability to the cytoskeleton (10 mM MES pH 6.0, 150 mM NaCl, 5 mM EDTA, 3% sucrose, 5 mM MgCl2) for 5 min. Then, cells were fixed and permeabilized using methanol for 10 min. Non specific binding sites were blocked for 1 h with phosphate-buffered saline (PBS) supplemented with 3% bovine serum albumin. […] Cellular staining was evaluated in a confocal microscope (Carl Zeiss Axiovert 135, LSM Microsystems). Cardiomyocyte size was determined in cells fixed with 4% paraformaldehyde for 10 min and permeabilized with methanol for 10 min. […] The size of at least 100 cells from randomly selected fields was determined using Image J (NIH) software. […]

[2] = tested on: rats with myocardial infarction (left coronary artery ligation); test: Effects of angiotensin-(1-9) administration on hemodynamic parameters and left ventricle weight in infarcted rats; assay type: in vivo, Sprague Dawley rats; conditions: infarcted rats (MI), osmotic mini-pump 14 days, average ± SEM
Method: (§1) For studies with angiotensin-(1-9) 28 rats were randomly distributed into two groups and underwent a sham surgery (n=8) or infarction following left coronary artery ligation (n=20). The infarcted rats were randomized to receive the either the carrier, angiotensin-(1-9) (463 ng/kg of body weight for 14 days) or angiotensin-(1-9) plus A779 (463 ng of angiotensin-(1-9)/kg of body weight/min and 100 ng of A779/kg/min for 14 days) by means of osmotic mini-pumps (ALZET) implanted into the jugular under sedation with ketamine-HCl/xilazine (35/7 mg/kg intraperitoneal, respectively).
Systolic blood pressure (SBP) was determined by using the “tail-cuff” method by investigators who were blind to the treatment group. Left ventricle function was determined by transthoracic bidimensional echocardiography using a Sonos 5000 equipped with a 5 to 12 MHz sectorial electronic ultraband S12 Philips transducer. The following echocardiographic parameters were determined: left ventricular end-systolic diameter (LVESD), left ventricular end diastolic diameter (LVEDD), left ventricular fractional shortening (LVFS), left ventricular anterior wall thickness (LVAWT), and left ventricular posterior wall thickness (LLVWT).
(§2) The extent of left ventricular hypertrophy was calculated by the relationship among left ventricular weight (LVW), body weight (BW), mRNA relative levels of the auricular natriuretic factor (ANF), left ventricular protein content (LVP), and protein levels of β-myosinheavy chain (β-MHC) as described in (Ocaranza et al, Hypertension 48:572-8, 2006).

[3] = Plasma angiotensin levels in infarcted rats treated with angiotensin-(1-9) with or without A779; assay type: in vivo, Sprague Dawley rats; conditions: with vs without A779, p<0.01
Method: as §1
Plasma angiotensin and bradykinin levels were determined as described by (Ocaranza et al, Hypertension 48:572-8, 2006; Ocaranza et al, Life Sci. 78:1535-42, 2005; Campbell et al, J. Mol. Cell. Cardiol. 27:1545-60, 1995). Briefly, rats were anesthetized with a combination of ketamin (125 mg/kg) and xilazin (12.5 mg/kg) administered via intraperitoneal injection. […] Plasmas were stored at −80° C. until their extraction using C18 Sep-Pak cartridges, and peptides were acetylated. Acetylated angiotensin II, angiotensin I, angiotensin-(1-7), angiotensin-(1-9), bradykinin-(1-7) and bradykinin-(1-9) were separated by high performance liquid chromatography (HPLC) and were detected by radioimmunoassay.

[4] = tested on: left ventricle of infarcted rats; test: ANF mRNA (RT-PCR) and β-MHC protein (Western blot) in left ventricle of infarcted rats; assay type: in vivo, Sprague Dawley rats; conditions: two weeks via osmotic mini-pumps, p<0.01
Method: as §1, §2
In animal models as described in example 1, the heart was removed and RNA was purified according to the procedure described in example 3. Later, the amount of ANF mRNA was determined by reverse transcription followed by polymerization chain reaction (RT-PCR) (see example 3). […] Panel B) illustrates RT-PCRs quantification. **p<0.01 vs sham; ^##p<0.01 vs MI. […]

[5] = tested on: heart cardiomyocytes of infarcted rats; test: Cardiomyocyte area and perimeter, cardiac tissue morphometry of infarcted rats; assay type: in vivo, Sprague Dawley rats; conditions: two weeks via osmotic mini-pumps, p<0.01
Method: as §1
Heart mid-ventricle transverse slices (10 μm) were embedded in paraffin, stained with hematoxylin and eosin, and were examined by light microcopy (×20). The size of cardiomyocytes was determined as described by Nakamura et al (Circulation 98:794-9, 1998). Briefly, cell images visualized on a video recorded attached to the microscope were projected in a monitor and they were plotted. The area and perimeter were determined using Image J. software. […] At least 70 cells per animal were measured.
In animal models as described in example 1, heart was removed, histological cuts were made and a morphologic and morphometric analysis was performed on cardiac tissue according to the procedure described in example 3. […] In panel B), quantification is illustrated. **p<0.01 vs sham; ^##p<0.01 vs MI.

DRVYIHPFH [angiotensin-(1-9)]
increments in cardiomyocyte areas induced by IGF-1 ([1]; IGF-1 10 nM): significantly prevented
increments in cardiomyocyte areas induced by NE ([1]; NE 10 μM): significantly prevented
CPVI [2]: 8.0 ± 0.3 mg
FC [2]: without observing changes
LVW [2]: significant reduction
LVW/BW [2]: 310 ± 16 MV/100 g BW
SBP [2]: without observing changes; also recorded: does not alter
FC ([2]; listed as Ang-(1-9)): 259 ± 14 beats/min
LVW ([2]; listed as Ang-(1-9)): 810 ± 7 mg
SBP ([2]; listed as Ang-(1-9)): 112 ± 2 mm Hg
plasma angiotensin-(1-9) levels [3]: 6.8±0.8 fmols/g
ANF mRNA levels, reduction compared with infarcted rats ([4]; RT-PCR): 81%
β-MHC protein levels in left ventricle, decrease compared with infarcted rats ([4]; Western blot): 48%
cardiomyocyte cellular area increment compared with infarcted rats [5]: prevented cellular area increment
cardiomyocyte perimeter, decrease with regard to infarcted rats [5]: 31%
